In patent EP4242199A1 (priority 2022, dated 2023):
Like-named read-outs stand apart in the source and are kept apart here.

Legend:
[1] = system: Pyricularia oryzae; assay type: cell-based; details: PYRIOR, relative growth vs active compound-free control (100%), 405 nm, 7 days after inoculation, 18°C
[2] = system: Phakopsora pachyrhizi; assay: Greenhouse: protective control of soybean rust on soybeans caused by Phakopsora pachyrhizi (PHAKPA P6); assay type: in vivo; details: spray six days before inoculation, F129L strain, % diseased leaf area, untreated 74
[3] = system: Colletotrichum orbiculare; assay: Microtest: activity against anthracnose pathogen Colletotrichum orbiculare (COLLLA); assay type: cell-based; details: relative growth vs active compound-free control (100%), 405 nm, 7 days after inoculation, 18°C
[4] = system: Puccinia recondita; assay type: in vivo; details: for PUCCRT Disease level (%) K4 at 63 ppm: wheat, curative spray 4 days after inoculation, % diseased leaf area, untreated 85
[5] = system: Phakopsora pachyrhizi; assay: Greenhouse: protective control of soybean rust on soybeans caused by Phakopsora pachyrhizi (PHAKPA P2); assay type: in vivo; details: spray 2 days before inoculation, F129L strain, % diseased leaf area, untreated 97
[6] = system: Sclerotinia sclerotiorum; assay type: cell-based
[7] = system: Leptosphaeria nodorum; assay: Microtest: activity against Leptosphaeria nodorum causing wheat leaf spots (LEPTNO); assay type: cell-based; details: relative growth vs active compound-free control (100%), 405 nm, 7 days after inoculation, 18°C
[8] = system: Puccinia recondita; assay type: in vivo; details: for PUCCRT Disease level (%) P1 at 63 ppm: wheat, preventative spray 1 day before inoculation, % diseased leaf area, untreated 82
[9] = system: Alternaria solani; assay type: cell-based
[10] = system: Septoria tritici; assay: Microtest: activity against wheat leaf blotch pathogen Septoria tritici (SEPTTR); assay type: cell-based; details: relative growth vs active compound-free control (100%), 405 nm, 7 days after inoculation, 18°C
[11] = system: Qol (F129L) resistant isolate of Pyrenophora teres; assay: Microtest: activity against resistant isolate of net blotch pathogen Pyrenophora teres (PYRNTE res); assay type: cell-based; details: relative growth vs active compound-free control (100%), 405 nm, 7 days after inoculation, 18°C
[12] = system: Qol (G143A) resistant isolate of Septoria tritici; assay: Microtest: activity against resistant isolate of Septoria tritici (SEPTTR res); assay type: cell-based; details: relative growth vs active compound-free control (100%), 405 nm, 7 days after inoculation, 18°C
[13] = system: Cercospora sojina; assay type: cell-based
[14] = system: Phytophthora infestans; assay type: cell-based; details: PHYTIN, relative growth vs active compound-free control (100%), 405 nm, 7 days after inoculation, 18°C
[15] = system: Qol (F129L) resistant isolate of Alternaria solani; assay: Microtest: activity against resistant isolate of Alternaria solani (ALTESO res); assay type: cell-based; details: relative growth vs active compound-free control (100%), 405 nm, 7 days after inoculation, 18°C
[16] = SCLESC, relative growth vs active compound-free control (100%), 405 nm, 7 days after inoculation, 18°C
[17] = ALTESO, relative growth vs active compound-free control (100%), 405 nm, 7 days after inoculation, 18°C

Molecule	Growth (%) at 125 ppm [1]	PHAKPA Disease level (%) P6 at 63 ppm [2]	Growth (%) at 125 ppm [3]	PUCCRT Disease level (%) K4 at 63 ppm [4]	PHAKPA Disease level (%) P2 at 63 ppm [5]	Growth (%) at 125 ppm [6, 16]	Growth (%) at 125 ppm [7]	PUCCRT Disease level (%) P1 at 63 ppm [8]	Growth (%) at 125 ppm [9, 17]	Growth (%) at 125 ppm [10]	PUCCRT Disease level (%) K4 at 16 ppm [4]	PUCCRT Disease level (%) P1 at 16 ppm [8]	Growth (%) at 125 ppm [11]	Growth (%) at 125 ppm [12]	Growth (%) at 125 ppm [13]	Growth (%) at 125 ppm [6]	Growth (%) at 125 ppm [14]	Growth (%) at 125 ppm [15]	Growth (%) at 125 ppm [9]
(E)-4-(3-Chlorophenyl)-N-[[2-[(E)-C-(1,4,2-dioxazin-3-yl)-N-methoxy-carbonimido-yl]phenyl]methoxy]but-3-yn-2-imine [Compound 8]	0%	12%	0%	28%	7%	19%	2%	0%	2%	0%									
COc1nn(C)c(=O)n1-c1ccccc1CO/N=C(\C)C#Cc1ccc(Cl)cc1 [Compound 2, 4-[2-[[(E)-[3-(4-Chlorophenyl)-1-methyl-prop-2-ynylidene]amino]oxymethyl]phenyl]-5-methoxy-2-methyl-1,2,4-triazol-3-one]	16%										30%	11%							
Ethyl N-[2-[[(E)-[3-(3-chlorophenyl)-1-methyl-prop-2-ynylidene]amino]oxymethyl]-phenyl]-N-methoxy-carbamate [Compound 6]	0%	13%	0%	50%	11%	17%	0%	7%	0%	0%			0%						
C/C(C#Cc1ccc(Cl)cc1)=N\OCc1ccccc1-n1nnn(C)c1=O [Compound 1, 1-[2-[[(E)-[3-(4-Chlorophenyl)-1-methyl-prop-2-ynylidene]amino]oxymethyl]phenyl]-4-methyl-tetrazol-5-one]	0%									5%				13%	0%	11%			
Ethyl N-[2-[[(E)-[3-(4-chlorophenyl)-1-methyl-prop-2-ynylidene]amino]oxymethyl]-phenyl]-N-methoxy-carbamate [Compound 5]	0%	48%	0%	70%	43%	12%	0%	10%	10%	0%			0%						
(E)-4-(4-chlorophenyl)-N-[[2-[(E)-C-(1,4,2-dioxazin-3-yl)-N-methoxy-carbonimidoyl]-phenyl]methoxy]but-3-yn-2-imine [Compound 7]	0%	32%	0%	53%	33%	1%	0%	13%	1%	0%									
COc1nn(C)c(=O)n1-c1ccccc1CO/N=C(\C)C#Cc1cccc(Cl)c1 [Compound 4, 4-[2-[[(E)-[3-(3-Chlorophenyl)-1-methyl-prop-2-ynylidene]amino]oxymethyl]phenyl]-5-methoxy-2-methyl-1,2,4-triazol-3-one]	0%						7%			0%	31%	13%	0%	0%		17%	0%	16%	4%
